Drawing on PubChem BioAssay (NCI), this text covers GI50 and TGI for 10 compounds.

Values joined by “and” are separate entries in the source; they are usually repeats but may differ in a detail not shown here. Equal entries are not always repeated.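 1) Cells in 96-well plates. 2) Compound, 48 h, 5 concentrations. 3) Linear interpolation between surrounding doses. 4) Unreached endpoint = highest concentration. Here, GI50 denotes the concentration required for 50% inhibition of growth. TGI is the concentration that stops growth completely.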

What all share (experiment): NCI-60 cell line screen, 48 h
Test [1] has as its system MOLT-4 leukemia.
Test [2] concerns OVCAR-3 ovarian.
Test [3] deals with OVCAR-8 ovarian.
The subject of test [4] is UACC-62 melanoma.
The test system of test [5] is SK-MEL-28 melanoma.
In test [6] the test system is SF-539 CNS.
In test [7] the test system is SF-268 CNS.
For test [8], the system named is RXF 393 renal.
Test [9] has as its system SK-MEL-5 melanoma.
The subject of test [10] is EKVX NSCLC.

Take `O=C1/C(=C/c2ccccc2[N+](=O)[O-])COc2ccc(O)c(O)c21`: the GI50 in [1] was 0.431 µM; in [2], 0.295 µM; in [3], 0.525 µM; in [4], 0.864 µM; in test [5], 1.33 µM; in test [6], 1.21 µM. The GI50 was 1.18 µM in [7], 0.357 µM in [8], 1.53 µM in test [9] and 2.51 µM in [10]. In addition, the TGI is greater than 21.8 µM in [1]; 0.976 µM in test [2]; 18.6 µM in test [3]; 2.4 µM in test [4]; 2.97 µM in test [5]; 2.99 µM in [6]. The TGI in [7] came to 4.58 µM; in [8], 1.46 µM; in test [9], 3.02 µM; in test [10] it was 10.8 µM.

Consider `CC1(C)CC(N2CCN(C3CC(C)(C)NC(C)(C)C3)CC2)CC(C)(C)N1`, for which the TGI in test [1], in [2], in [3], in test [4], in test [5] and in [6] was greater than 100 µM each time. In addition, the TGI in test [7], in test [8], in test [9] and in test [10] was greater than 100 µM throughout.

As for `CCc1ccc([O-])c(C=NCCCN(C)CCCN=Cc2cc(C)ccc2[O-])c1.[Co+3].[N-]=[N+]=[N-]`, the GI50 was greater than 150 µg/mL in test [1]; 50 µg/mL and 71.1 µg/mL in [2]; 31.9 µg/mL and 49.1 µg/mL in test [3]; 50 µg/mL and 78.2 µg/mL in [4]; 50 µg/mL and 91.8 µg/mL in [5]; 50 µg/mL and 22.7 µg/mL in test [6]. The GI50 is 21.9 µg/mL and 53.3 µg/mL in test [7]; 5.76 µg/mL and 20.4 µg/mL in test [8]; 50 µg/mL and 139 µg/mL in test [9]; 50 µg/mL and 103 µg/mL in [10]. Moreover, the TGI in test [1] is greater than 150 µg/mL; in test [2] it was 50 µg/mL and > 150 µg/mL; in [3], 50 µg/mL and > 150 µg/mL; in test [4], 50 µg/mL and > 150 µg/mL; in test [5] it was 50 µg/mL and > 150 µg/mL; in test [6], 50 µg/mL and 82.3 µg/mL. Further, the TGI is 50 µg/mL and > 150 µg/mL in [7]; 35.5 µg/mL and 46 µg/mL in test [8]; 50 µg/mL and > 150 µg/mL in [9]; 50 µg/mL and > 150 µg/mL in test [10].

For `NC(=O)c1cc([N+](=O)[O-])cc([N+](=O)[O-])c1`, the TGI in test [1], in test [2], in test [3], in test [4], in [5] and in test [6] was greater than 100 µM each time. Moreover, the TGI in test [7], in [8], in test [9] and in test [10] was greater than 100 µM throughout.

Regarding `N#Cc1ccc(/C=C/C(=O)c2ccccc2)cc1`, the GI50 was 9.4 µM and 6.4 µM in test [1]; 13.8 µM and 5.71 µM in [2]; 9.07 µM and 11.2 µM in [3]; 13.5 µM and 14 µM in test [4]; 15.5 µM and 5.18 µM in test [5]; 13.9 µM and 15.9 µM in test [6]. Also, the GI50 in test [7] is 13.3 µM and 9.61 µM; in test [8], 7.15 µM and 5.93 µM; in [9], 14 µM and 12.6 µM; in test [10] it was 16.6 µM and 13.6 µM. Besides, the TGI in [1] is 53.3 µM and > 38.9 µM; in [2] it was 26.6 µM and 13 µM; in test [3] it was 22.2 µM and 27.5 µM; in test [4], 26.6 µM and 27.5 µM; in test [5] it was 28.8 µM and 14.9 µM; in test [6], 26.9 µM and 29.4 µM. Also, the TGI in test [7] was 26.7 µM and 25.4 µM; in [8], 19.3 µM and 18.2 µM; in test [9] it was 26.9 µM and 25.4 µM; in test [10], 34.9 µM and 27.4 µM.

On to `CC12CC(=O)C3C(CCC4=CC(=O)CCC43C)C1CC=C2CC(=O)O` (centres undefined), for which the TGI in test [1], in test [2], in [3], in test [4], in [5] and in test [6] was greater than 100 µM each time. Moreover, the TGI in test [7], in test [8], in test [9] and in test [10] was greater than 100 µM throughout.

For `COC(=O)c1ccc2c(C(=Nc3ccc(N(C)C(=O)CN4CCN(C)CC4)cc3)c3ccccc3)c(O)[nH]c2c1`, the GI50 is 2.21 µM and 2.74 µM in [1]; 7.08 µM and 19.9 µM in [2]; 2.31 µM and 2.43 µM in [3]; 2.18 µM and 3.09 µM in [4]; 1.77 µM and 1.96 µM in test [5]; 0.597 µM and 1.4 µM in test [6]. For the same compound, the GI50 in test [7] was 1.79 µM and 2.29 µM; in test [8] it was 0.683 µM and 0.572 µM; in test [9], 3.94 µM and 2.32 µM; in test [10] it was 10.6 µM and 49.6 µM. In addition, the TGI in test [1] is 22.1 µM and > 100 µM; in test [2], 16.1 µM and 47 µM; in test [3], 27.6 µM and > 100 µM; in test [4], 5.09 µM and 21.4 µM; in test [5] it was 3.35 µM and 3.5 µM; in [6] it was 2.26 µM and 5.9 µM. Also, the TGI in test [8] is 2.47 µM and 2.9 µM; in test [9] it was 9.86 µM and 6.51 µM; in test [10], greater than 100 µM.

With `COC(=O)C1(C)CCCC2(C)c3cc(OC)ccc3C(=O)C(Br)C12` (centres undefined), the TGI in [1] was 4.17 µM; in test [2] it was greater than 10 µM; in test [3], 4.54 µM; in [4] it was greater than 10 µM; in [5], greater than 10 µM; in [6], greater than 10 µM. Also, the TGI in test [7], in test [8], in [9] and in test [10] was greater than 10 µM throughout.

With `CC/C(=N/N=C(N)N)c1ccc(NC(=O)Nc2ccc(/C(CC)=N/N=C(N)N)cc2)cc1`, the GI50 in [1] is 2.07 µM; in [2], 6.19 µM; in test [3], 5.95 µM; in test [4], 5.13 µM; in [5], 12.6 µM; in test [6], 8.04 µM. Besides, the GI50 is 12.8 µM in [7], 7.81 µM in test [8], 2.07 µM in [9] and 6.55 µM in [10]. Also, the TGI in test [1] was 6.51 µM; in test [2] it was 32 µM; in [3], greater than 100 µM; in test [4] it was 22.7 µM; in test [5] it was 46.9 µM; in [6], 35.9 µM. Also, the TGI in test [7] is greater than 100 µM; in [8] it was 33.2 µM; in test [9], greater than 100 µM; in test [10] it was 39.6 µM.

As to `CCCCCCCCCCCC(=O)OC(COC(N)=O)COc1ccc(Cl)cc1` (centres undefined), the TGI in test [1] stood at 44.3 µM; in test [2], 31.6 µM; in test [3], 33.6 µM; in test [4], 41.3 µM; in [5], 36.2 µM; in test [6], 66.4 µM. Moreover, the TGI in test [7] amounted to 42.5 µM; in [8], 43.9 µM; in test [9] it was 32.8 µM; in [10], 92.1 µM.
